{"source": "paper PMC11776485", "about": "(Virulence, 2025)", "target": "T1, MoOxdC (Pyricularia oryzae, UniProt G4NLF1)", "T1 construct": "gene MGG_14061", "T1 sequence (G4NLF1 1-500 limits assumed)": "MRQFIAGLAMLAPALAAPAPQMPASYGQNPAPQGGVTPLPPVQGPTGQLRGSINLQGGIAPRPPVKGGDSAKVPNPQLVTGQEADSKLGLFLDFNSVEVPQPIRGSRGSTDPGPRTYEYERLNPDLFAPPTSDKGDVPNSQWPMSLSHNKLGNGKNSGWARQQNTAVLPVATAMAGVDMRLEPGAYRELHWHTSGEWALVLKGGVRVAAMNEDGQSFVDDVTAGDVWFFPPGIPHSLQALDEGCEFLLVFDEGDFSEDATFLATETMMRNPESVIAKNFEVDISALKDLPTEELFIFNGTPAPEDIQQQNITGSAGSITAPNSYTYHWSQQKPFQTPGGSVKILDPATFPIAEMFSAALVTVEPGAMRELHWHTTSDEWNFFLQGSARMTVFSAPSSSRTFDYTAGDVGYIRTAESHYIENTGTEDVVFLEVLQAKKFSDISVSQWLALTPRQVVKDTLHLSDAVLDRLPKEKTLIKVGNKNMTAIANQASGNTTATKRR", "conditions": "50 mM citrate pH 4.0, 37 °C, 30 min; 0.2 mL of 8 mM oxalic acid in 1.5 mL; no added metal"}
{"smiles": "O=C(O)C(=O)O", "note": "[oxalic acid]", "values": [{"measurement": "residual oxalic acid by Fe(III)-sulfosalicylate absorbance at 510 nm; formic aci", "result": "The oxalate decarboxylase activity of the purified recombinant MoOxdC protein was analyzed."}]}
